Experimental findings from patent US20120083522A1, “MODULATION OF INFLAMMATORY RESPONSES BY FACTOR XI” (Isis Pharmaceuitcals, inc., priority 2009, published 2012) are described below.

The nature of data set [1]: Tolerability in Sprague-Dawley rats: body and organ weight (Example 19). Format: in vivo. Conditions: 50 mg/kg s.c. twice per week for 6 weeks, change over weight at start of study. From the text: Urine samples were taken before the start of treatment.
The body weights are presented in Table 78 and are expressed as a percent change over the weights taken at the start of the study.

Data set [2] deals with human Factor XI mRNA. The data set is described as follows: Dose-dependent inhibition in HepB3 cells, lipofectin (Example 7). Format: cell-based. Particulars: approx. 16 h. Here is the method:
Cells were plated at a density of 4,000 cells per well and transfected using lipofectin reagent with 2.3 nM, 4.7 nM, 9.4 nM, 18.75 nM, 37.5 nM, and 75 nM concentrations of antisense oligonucleotide, as specified in Table 14. After a treatment period of approximately 16 hours, RNA was isolated from the cells and human Factor XI mRNA levels were measured by quantitative real-time PCR. Human Factor XI primer probe set RTS 2966 was used to measure mRNA levels. Factor XI mRNA levels were adjusted according to total RNA content, as measured by RIBOGREEN®. Results are presented as percent inhibition of Factor XI, relative to untreated control cells.

Data set [3] relates to human Factor XI mRNA. The data set is described as follows: Antisense inhibition in HepG2 cells by microwalk gapmers, 75 nM, lipofectin (Example 3). Particulars: HepG2 cells, 75 nM, oligonucleotides targeted to nucleobases 1275 to 1318 of SEQ ID NO: 1. Format: cell-based. The gist of the method: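 HepG2 cells (10,000 per well) were transfected with 75 nM gapmer using lipofectin and treated for about 24 h. Factor XI mRNA was quantified by real-time PCR, normalized to RiboGreen total RNA and expressed as percent inhibition versus untreated controls.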

The test system of data set [4] is human Factor XI mRNA. The data set is described as follows: Dose-dependent inhibition in HepB3 cells, electroporation (Example 7). It is filed as cell-based. Particulars: approx. 16 h. As to the method:
The gapmers were also transfected via electroporation and their dose dependent inhibition of human Factor XI mRNA was measured. Cells were plated at a density of 20,000 cells per well and transfected via electroporation with 41.15 nM, 123.457 nM, 370.37 nM, 1111.11 nM, 3333.33 nM, and 10,000 nM concentrations of antisense oligonucleotide, as specified in Table 15. After a treatment period of approximately 16 hours, RNA was isolated from the cells and human Factor XI mRNA levels were measured by quantitative real-time PCR. Human Factor XI primer probe set RTS 2966 was used to measure mRNA levels. Factor XI mRNA levels were adjusted according to total RNA content, as measured by RIBOGREEN®. Results are presented as percent inhibition of human Factor XI, relative to untreated control cells.

The subject of data set [5] is human Factor XI mRNA. The data set is described as follows: Dose-dependent inhibition in cyno primary hepatocytes, electroporation (Example 6). It is filed as cell-based, cynomolgus monkey. Particulars: approx. 16 h. As to the method:
Cells were plated at a density of 35,000 cells per well and transfected via electroporation with 0.74 nM, 2.2 nM, 6.7 nM, 20 nM, 60 nM, and 180 nM concentrations of antisense oligonucleotide, as specified in Table 13. After a treatment period of approximately 16 hours, RNA was isolated from the cells and human Factor XI mRNA levels were measured by quantitative real-time PCR. Human Factor XI primer probe set RTS 2966 was used to measure mRNA levels. Factor XI mRNA levels were adjusted according to total RNA content, as measured by RIBOGREEN®. Results are presented as percent inhibition of human Factor XI, relative to untreated control cells.

Consider “416864 (antisense GGCAGCGGACGGCATTGGTG; 5-10-5 gapmer, wing sugar chemistry not given here, further chemistry not given here) [compound 416864]”, for which the “Percent change in Body weight” value in data set [1] is −24%. Besides, the “percent inhibition of human Factor XI mRNA” value (shortened to “percent inhibition”) with human Factor XI mRNA [2] (2.3 nM) came to 24%; with human Factor XI mRNA [2] (4.7 nM), 37%; in the data set with human Factor XI mRNA [2] (9.4 nM) it was 42%; with human Factor XI mRNA [2] (18.75 nM), 66%; in the data set with human Factor XI mRNA [2] (37.5 nM) it was 76%; in the data set with human Factor XI mRNA [2] (75 nM), 63%. Also, the “percent inhibition” value turned out to be 4% in the data set on human Factor XI mRNA [4] (41.15 nM); 3% with human Factor XI mRNA [4] (123.457 nM); 6% with human Factor XI mRNA [4] (370.37 nM); 35% with human Factor XI mRNA [4] (1111.11 nM); 75% with human Factor XI mRNA [4] (3333.33 nM); 87% in the data set on human Factor XI mRNA [4] (10000 nM). Besides, the “percent inhibition” value with human Factor XI mRNA [5] (0.74 nM) is given as 0%; in the data set on human Factor XI mRNA [5] (2.2 nM) it was 1%; with human Factor XI mRNA [5] (6.7 nM), 15%; in the data set on human Factor XI mRNA [5] (20 nM) it was 23%; with human Factor XI mRNA [5] (60 nM) it was 47%; in the data set on human Factor XI mRNA [5] (180 nM), 64%. The “% inhibition of human Factor XI mRNA levels” value in the data set with human Factor XI mRNA [3] was 93%.
Consider “417002 (antisense GGTGCACAGTTTCTGGCAGG; 2-13-5 gapmer, wing sugar chemistry not given here, further chemistry not given here) [compound 417002]”, for which the “Percent change in Body weight” value in data set [1] is −29%. Further, the “percent inhibition” value in the data set with human Factor XI mRNA [2] (2.3 nM) is given as 24%; with human Factor XI mRNA [2] (4.7 nM), 30%; in the data set on human Factor XI mRNA [2] (9.4 nM) it was 46%; with human Factor XI mRNA [2] (18.75 nM), 57%; in the data set on human Factor XI mRNA [2] (37.5 nM) it was 71%; with human Factor XI mRNA [2] (75 nM), 65%. Further, the “percent inhibition” value is reported as 19% in the data set on human Factor XI mRNA [4] (41.15 nM); 0% in the data set with human Factor XI mRNA [4] (123.457 nM); 31% with human Factor XI mRNA [4] (370.37 nM); 47% in the data set on human Factor XI mRNA [4] (1111.11 nM); 86% with human Factor XI mRNA [4] (3333.33 nM); 93% in the data set with human Factor XI mRNA [4] (10000 nM). In addition, the “percent inhibition” value came to 32% with human Factor XI mRNA [5] (0.74 nM); 16% in the data set with human Factor XI mRNA [5] (2.2 nM); 28% with human Factor XI mRNA [5] (6.7 nM); 38% in the data set on human Factor XI mRNA [5] (20 nM); 55% in the data set with human Factor XI mRNA [5] (60 nM); 71% in the data set with human Factor XI mRNA [5] (180 nM). Besides, the “% inhibition of human Factor XI mRNA levels” value with human Factor XI mRNA [3] is 92%.
